Test results from patent US20230365592A1 (Agios Pharmaceuticals, Inc., priority 2022, published 2023).

target: T1, human PAH with the R408W mutation (Homo sapiens, UniProt P00439, R408W); assay: Cell Based Phenylalanine Flux Assay; settings: A375 cells expressing human PAH R408W; 24 hrs compound incubation; 13C-Tyrosine by LC-MS; average where tested multiple times; read-out: AC50;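 note: after compound treatment, cells received sepiapterin plus isotope-labelled Phenylalanine for 4 hours, then labelled Tyrosine in the medium was quantified, 10-point 2-fold dilution series run in duplicate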
T1 construct: expressed in transfected cells
T1 sequence (P00439 1-452 R408W): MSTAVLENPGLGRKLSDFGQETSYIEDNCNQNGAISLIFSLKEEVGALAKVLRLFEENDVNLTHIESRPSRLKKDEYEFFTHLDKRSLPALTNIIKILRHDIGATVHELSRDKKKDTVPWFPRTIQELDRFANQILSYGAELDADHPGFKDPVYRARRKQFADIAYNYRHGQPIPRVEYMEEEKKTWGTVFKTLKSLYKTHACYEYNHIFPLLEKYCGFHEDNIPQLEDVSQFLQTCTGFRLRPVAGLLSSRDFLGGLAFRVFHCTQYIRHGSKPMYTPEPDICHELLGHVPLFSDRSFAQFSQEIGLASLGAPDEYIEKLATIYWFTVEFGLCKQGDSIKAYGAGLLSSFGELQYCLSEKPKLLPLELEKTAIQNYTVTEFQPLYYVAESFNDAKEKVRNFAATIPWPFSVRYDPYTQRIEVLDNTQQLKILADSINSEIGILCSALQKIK
Method: Compounds were resuspended in DMSO, and 2-fold serial dilutions were performed to generate a 10-point dose curve. Compounds were added to plated cells in a total volume of 100 µl, and a final DMSO concentration of 0.5%. Each compound was tested in duplicate. Following compound addition, cells were placed in a 5% CO2, 37° C. tissue culture incubator for 24 hrs. After the incubation period, 20 µM sepiapterin and 800 µM 13C9,15N-Phenylalanine were added. After 4 hours, cell media was removed. An aliquot of 10 µl of cell media was combined with 200 µl of extraction buffer (80% acetonitrile/20% H2O) for each well. Determination of ^13C-Tyrosine concentration was assessed by liquid chromatography mass spectrometry.
Where a compound was tested multiple times, the average value of the tests is reported.

| AC50 [nM] | Compound |
| --- | --- |
| > 5000 | Cn1ccc(-c2nnc(C(=O)N3CCc4[nH]cnc4[C@@H]3c3cc4ccccn4n3)s2)n1 [Example 2017, (R)-(5-(1-methyl-1H-pyrazol-3-yl)-1,3,4-thiadiazol-2-yl)(4-(pyrazolo[1,5-a]pyridin-2-yl)-1,4,6,7-tetrahydro-5H-imidazo[4,5-c]pyridin-5-yl)methanone] |
| < 500 | Cn1cc(-c2nnc(C(=O)N3CCc4[nH]cnc4[C@H]3c3cc4c(F)cccn4n3)s2)cn1 [Example 2018, (S)-(4-(4-fluoropyrazolo[1,5-a]pyridin-2-yl)-1,4,6,7-tetrahydro-5H-imidazo[4,5-c]pyridin-5-yl)(5-(1-methyl-1H-pyrazol-4-yl)-1,3,4-thiadiazol-2-yl)methanone] |
| > 5000 | Cn1cc(-c2nnc(C(=O)N3CCc4[nH]cnc4[C@@H]3c3cc4c(F)cccn4n3)s2)cn1 [Example 2019, (R)-(4-(4-fluoropyrazolo[1,5-a]pyridin-2-yl)-1,4,6,7-tetrahydro-5H-imidazo[4,5-c]pyridin-5-yl)(5-(1-methyl-1H-pyrazol-4-yl)-1,3,4-thiadiazol-2-yl)methanone] |
| < 500 | Cc1cccn2nc([C@@H]3c4nc[nH]c4CCN3C(=O)c3nc4ccccc4o3)cc12 [Example 2020, (S)-benzo[d]oxazol-2-yl(4-(4-methylpyrazolo[1,5-a]pyridin-2-yl)-1,4,6,7-tetrahydro-5H-imidazo[4,5-c]pyridin-5-yl)methanone] |
| 500 to 1000 | O=C(c1nc2ccccc2s1)N1CCc2[nH]cnc2[C@H]1c1cc2c(C(F)F)cccn2n1 [Example 2022, (S)-benzo[d]thiazol-2-yl(4-(4-(difluoromethyl)pyrazolo[1,5-a]pyridin-2-yl)-1,4,6,7-tetrahydro-5H-imidazo[4,5-c]pyridin-5-yl)methanone] |
| > 5000 | O=C(c1nc2ccccc2s1)N1CCc2[nH]cnc2[C@@H]1c1cc2c(C(F)F)cccn2n1 [Example 2023, (R)-benzo[d]thiazol-2-yl(4-(4-(difluoromethyl)pyrazolo[1,5-a]pyridin-2-yl)-1,4,6,7-tetrahydro-5H-imidazo[4,5-c]pyridin-5-yl)methanone] |
| < 500 | Cc1cccn2nc([C@@H]3c4nc[nH]c4CCN3C(=O)C3CC3)cc12 [Example 2024, (S)-cyclopropyl(4-(4-methylpyrazolo[1,5-a]pyridin-2-yl)-1,4,6,7-tetrahydro-5H-imidazo[4,5-c]pyridin-5-yl)methanone] |
| 500 to 1000 | Cc1cccn2nc([C@@H]3c4nc[nH]c4CCN3C(=O)[C@H]3CC3(F)F)cc12 [Example 2027, ((R)-2,2-difluorocyclopropyl)((S)-4-(4-methylpyrazolo[1,5-a]pyridin-2-yl)-1,4,6,7-tetrahydro-5H-imidazo[4,5-c]pyridin-5-yl)methanone] |
| < 500 | Cc1cccn2nc([C@@H]3c4nc[nH]c4CCN3C(=O)[C@@H]3CC3(F)F)cc12 [Example 2028, ((S)-2,2-difluorocyclopropyl)((S)-4-(4-methylpyrazolo[1,5-a]pyridin-2-yl)-1,4,6,7-tetrahydro-5H-imidazo[4,5-c]pyridin-5-yl)methanone] |
| > 5000 | Cc1cccn2nc([C@H]3c4nc[nH]c4CCN3C(=O)[C@@H]3CC3(F)F)cc12 [Example 2029, ((S)-2,2-difluorocyclopropyl)((R)-4-(4-methylpyrazolo[1,5-a]pyridin-2-yl)-1,4,6,7-tetrahydro-5H-imidazo[4,5-c]pyridin-5-yl)methanone] |
| 1000 to 5000 | O=C([C@@H]1CC1(F)F)N1CCc2[nH]cnc2[C@@H]1c1cc2c(F)cccn2n1 [Example 2031, ((S)-2,2-difluorocyclopropyl)((R)-4-(4-fluoropyrazolo[1,5-a]pyridin-2-yl)-1,4,6,7-tetrahydro-5H-imidazo[4,5-c]pyridin-5-yl)methanone] |
| < 500 | O=C(c1cnc(-c2ccccn2)o1)N1CCc2[nH]cnc2[C@H]1c1cc2c(F)cccn2n1 [Example 2032, (S)-(4-(4-fluoropyrazolo[1,5-a]pyridin-2-yl)-1,4,6,7-tetrahydro-5H-imidazo[4,5-c]pyridin-5-yl)(2-(pyridin-2-yl)oxazol-5-yl)methanone] |
| > 5000 | O=C(c1cnc(-c2ccccn2)o1)N1CCc2[nH]cnc2[C@@H]1c1cc2c(F)cccn2n1 [Example 2033, (R)-(4-(4-fluoropyrazolo[1,5-a]pyridin-2-yl)-1,4,6,7-tetrahydro-5H-imidazo[4,5-c]pyridin-5-yl)(2-(pyridin-2-yl)oxazol-5-yl)methanone] |
| 500 to 1000 | O=C(c1cnc(-c2ccccn2)o1)N1CCc2[nH]cnc2[C@H]1c1cc2c(C(F)F)cccn2n1 [Example 2034, (S)-(4-(4-(difluoromethyl)pyrazolo[1,5-a]pyridin-2-yl)-1,4,6,7-tetrahydro-5H-imidazo[4,5-c]pyridin-5-yl)(2-(pyridin-2-yl)oxazol-5-yl)methanone] |
| > 5000 | O=C(c1cnc(-c2ccccn2)o1)N1CCc2[nH]cnc2[C@@H]1c1cc2c(C(F)(F)F)cccn2n1 [Example 2037, (R)-(2-(pyridin-2-yl)oxazol-5-yl)(4-(4-(trifluoromethyl)pyrazolo[1,5-a]pyridin-2-yl)-1,4,6,7-tetrahydro-5H-imidazo[4,5-c]pyridin-5-yl)methanone] |
| 1000 to 5000 | O=C(c1ocnc1C1CC1)N1CCc2[nH]cnc2[C@@H]1c1cc2c(Cl)cccn2n1 [Example 2041, (R)-(4-(4-chloropyrazolo[1,5-a]pyridin-2-yl)-1,4,6,7-tetrahydro-5H-imidazo[4,5-c]pyridin-5-yl)(4-cyclopropyloxazol-5-yl)methanone] |
| 500 to 1000 | O=C(c1ocnc1C1CC1)N1CCc2[nH]cnc2[C@H]1c1cc2cccc(Cl)n2n1 [Example 2042, (S)-(4-(7-chloropyrazolo[1,5-a]pyridin-2-yl)-1,4,6,7-tetrahydro-5H-imidazo[4,5-c]pyridin-5-yl)(4-cyclopropyloxazol-5-yl)methanone] |
| 1000 to 5000 | O=C(c1ocnc1C1CC1)N1CCc2[nH]cnc2[C@@H]1c1cc2cccc(Cl)n2n1 [Example 2043, (R)-(4-(7-chloropyrazolo[1,5-a]pyridin-2-yl)-1,4,6,7-tetrahydro-5H-imidazo[4,5-c]pyridin-5-yl)(4-cyclopropyloxazol-5-yl)methanone] |
| > 5000 | Cn1cc(-c2nnc(C(=O)N3CCc4[nH]cnc4[C@@H]3c3cc4ccccn4n3)s2)cn1 [Example 2044, (R)-(5-(1-methyl-1H-pyrazol-4-yl)-1,3,4-thiadiazol-2-yl)(4-(pyrazolo[1,5-a]pyridin-2-yl)-1,4,6,7-tetrahydro-5H-imidazo[4,5-c]pyridin-5-yl)methanone] |
| 500 to 1000 | Cn1cc(-c2nnc(C(=O)N3CCc4[nH]cnc4[C@H]3c3cc4ccccn4n3)s2)cn1 [Example 2045, (S)-(5-(1-methyl-1H-pyrazol-4-yl)-1,3,4-thiadiazol-2-yl)(4-(pyrazolo[1,5-a]pyridin-2-yl)-1,4,6,7-tetrahydro-5H-imidazo[4,5-c]pyridin-5-yl)methanone] |
| > 5000 | Cc1cccn2nc([C@H]3c4nc[nH]c4CCN3C(=O)c3nnc(-c4cnn(C)c4)s3)cc12 [Example 2046, (R)-(5-(1-methyl-1H-pyrazol-4-yl)-1,3,4-thiadiazol-2-yl)(4-(4-methylpyrazolo[1,5-a]pyridin-2-yl)-1,4,6,7-tetrahydro-5H-imidazo[4,5-c]pyridin-5-yl)methanone] |
| 500 to 1000 | Cc1cccn2nc([C@@H]3c4nc[nH]c4CCN3C(=O)c3nnc(-c4cnn(C)c4)s3)cc12 [Example 2047, (S)-(5-(1-methyl-1H-pyrazol-4-yl)-1,3,4-thiadiazol-2-yl)(4-(4-methylpyrazolo[1,5-a]pyridin-2-yl)-1,4,6,7-tetrahydro-5H-imidazo[4,5-c]pyridin-5-yl)methanone] |
| 500 to 1000 | O=C(c1nc2ccccc2o1)N1CCc2[nH]cnc2[C@H]1c1cc2ccccn2n1 [Example 2048, (S)-benzo[d]oxazol-2-yl(4-(pyrazolo[1,5-a]pyridin-2-yl)-1,4,6,7-tetrahydro-5H-imidazo[4,5-c]pyridin-5-yl)methanone] |
| > 5000 | O=C(c1nc2ccccc2o1)N1CCc2[nH]cnc2[C@@H]1c1cc2ccccn2n1 [Example 2049, (R)-benzo[d]oxazol-2-yl(4-(pyrazolo[1,5-a]pyridin-2-yl)-1,4,6,7-tetrahydro-5H-imidazo[4,5-c]pyridin-5-yl)methanone] |
| > 5000 | O=C(c1nc2ccccc2o1)N1CCc2[nH]cnc2[C@@H]1c1cc2c(F)cccn2n1 [Example 2051, (R)-benzo[d]oxazol-2-yl(4-(4-fluoropyrazolo[1,5-a]pyridin-2-yl)-1,4,6,7-tetrahydro-5H-imidazo[4,5-c]pyridin-5-yl)methanone] |
| 500 to 1000 | O=C(c1nc2ccccc2o1)N1CCc2[nH]cnc2[C@H]1c1cc2c(C(F)F)cccn2n1 [Example 2052, (S)-benzo[d]oxazol-2-yl(4-(4-(difluoromethyl)pyrazolo[1,5-a]pyridin-2-yl)-1,4,6,7-tetrahydro-5H-imidazo[4,5-c]pyridin-5-yl)methanone] |
| > 5000 | O=C(c1nc2ccccc2o1)N1CCc2[nH]cnc2[C@@H]1c1cc2c(C(F)F)cccn2n1 [Example 2053, (R)-benzo[d]oxazol-2-yl(4-(4-(difluoromethyl)pyrazolo[1,5-a]pyridin-2-yl)-1,4,6,7-tetrahydro-5H-imidazo[4,5-c]pyridin-5-yl)methanone] |
